Where a name gives a salt, the structure may show the parent alone. Read-outs that look alike come from different tables or passages of the source.

Data on 20 compounds can be found in patent US7439253B2, “Heterocyclic compounds, their preparation and their use as medicaments, in particular as antibacterials and beta-lactamase inhibitors” (Novexel, priority 2002, dated 2008).

One assay addresses T1, β-lactamase P99 (Enterobacter cloacae, UniProt P05364).
T1 construct: The β-lactamases are isolated from bacterial strains resistant to penicillins and to cephalosporins; endogenous in cells; host or cells: E. cloacae 293HT6 (soluble fraction of French-press lysate, 100 000 G supernatant)
In words: biochemical. The class given is biochemical. The protocol:
(§1) A. Preparation of the β-lactamases Tem˜1 and P99
(§2) The β-lactamases are isolated from bacterial strains resistant to penicillins and to cephalosporins (Tem1 and P99 are produced by E. coli 250HT21 and E. Cloacae 293HT6, respectively).
(§3) The bacteria are cultured in heart-brain broth at 37 g/l (DIFCO), at 37° C. They are harvested at the end of the exponential phase, cooled and centrifuged. The bacterial pellets are taken up in 50 mM sodium phosphate buffer pH 7.0 and again centrifuged. The bacteria are taken up in two volumes of this same buffer and lyzed by means of a French-Press kept at 4° C. After centrifugation for 1 h at 100 000 G, at 4° C., the supernatants containing the soluble fraction of the bacterial extracts are recovered and frozen at −80° C.
(§4) B. Determination of the β-lactamase Activity
(§5) The method uses, as substrate, Nitrocefin (OXOID), a chromogenic cephalosporin, whose product of hydrolysis by Beta-lactamases is red and absorbs at 485 nm. The β-lactamase activity is kinetically determined by measuring the variation in absorbance at 485 nm resulting from the hydrolysis of the substrate on a plate spectrophotometer (Spectra Max Plus from Molecular Devices). The experiments are performed at 37° C. The quantity of enzyme was normalized and the measurements are performed at the initial speed.
(§6) C. Determination of the β-lactamase Inhibiting Activity
(§7) Two measurements are carried out, without preincubation and with preincubation of the enzyme and of the inhibitor (5 min), in order to test the irreversibility of the reaction. The products are tested at 6 or 8 concentrations in duplicate. The reaction mixture contains 100 μM of Nitrocefin and 50 mM sodium phosphate buffer pH 7.0. D. Calculations of the IC50 Values
(§8) The rates of hydrolysis are measured with and without inhibitor. The concentration of inhibitor which inhibits by 50% the reaction of hydrolysis of Nitrocefin by the enzyme (IC50) is determined. The data processing is carried out with the aid of the GraFit software (Erathycus Software).

A further assay has as its target T2, β-lactamase TEM1 (Escherichia coli, UniProt P62593).
T2 construct: The β-lactamases are isolated from bacterial strains resistant to penicillins and to cephalosporins; endogenous in cells; host or cells: E. coli 250HT21 (soluble fraction of French-press lysate, 100 000 G supernatant)
Briefly: β-lactamase inhibiting activity (Nitrocefin hydrolysis). The class given is biochemical, E. coli 250HT21. The protocol: as §1, §2, §3, §4, §5, §6, §7, §8

Where [1] appears, read: 100 μM Nitrocefin, 50 mM sodium phosphate buffer pH 7.0, 37° C.
The mark [2] stands for this setting: 100 μM Nitrocefin, 50 mM sodium phosphate buffer pH 7.0, 37° C., read-out: IC50 nM/TEM1.

T2 sequence (P62593 24-286 limits assumed): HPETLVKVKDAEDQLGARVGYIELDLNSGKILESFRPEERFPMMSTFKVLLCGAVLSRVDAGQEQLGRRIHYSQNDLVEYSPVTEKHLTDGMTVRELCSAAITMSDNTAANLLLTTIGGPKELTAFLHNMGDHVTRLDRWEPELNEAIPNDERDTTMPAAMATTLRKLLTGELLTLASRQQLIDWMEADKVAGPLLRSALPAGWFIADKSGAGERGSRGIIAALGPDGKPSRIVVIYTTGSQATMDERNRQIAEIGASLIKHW
T1 sequence (P05364 21-381): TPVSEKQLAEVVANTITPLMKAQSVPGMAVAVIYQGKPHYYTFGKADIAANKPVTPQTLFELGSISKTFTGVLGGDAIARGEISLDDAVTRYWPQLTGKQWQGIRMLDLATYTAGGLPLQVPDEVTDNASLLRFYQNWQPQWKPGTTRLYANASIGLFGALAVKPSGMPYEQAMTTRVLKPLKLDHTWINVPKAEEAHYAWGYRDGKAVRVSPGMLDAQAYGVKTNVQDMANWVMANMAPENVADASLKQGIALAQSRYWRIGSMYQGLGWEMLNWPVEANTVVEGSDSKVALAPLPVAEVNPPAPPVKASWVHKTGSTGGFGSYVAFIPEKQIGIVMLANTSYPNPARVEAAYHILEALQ

With `CCOC(=O)Cn1cc2c(n1)[C@@H](C(=O)OC)N1C[C@H]2N(OS(=O)(=O)O)C1=O` (relative stereo) [Example 5, Triethylammonium Salt of Ethyl Trans-5,6-dihydro-8-(methoxycarbonyl)-6-oxo-5-(sulfoxy)-4H-4,7-methanopyrazolo[3,4-e][1,3]diazepine-2(8H)-acetate], the IC50 against β-lactamase P99 (setting [1]) is 17 nM; at β-lactamase TEM1 (setting [2]), 13 nM.

On to `CCOC(=O)[C@H]1c2cccc(OC(=O)Nc3ccccc3)c2[C@@H]2CN1C(=O)N2OS(=O)(=O)O` (relative stereo) [Example 28, Sodium Salt of Ethyl Trans-1,2,3,5-tetrahydro-3-oxo-9-[[(phenylamino)carbonyl]oxy]-2-(sulfoxy)-1,4-methano-4H-2,4-benzodiazepine-5-carboxylate], for which the IC50 against β-lactamase P99 (setting [1]) was 25 nM; at β-lactamase TEM1 (setting [2]) it was 33 nM.

`COC(=O)C1c2c(cnn2CCc2ccccc2)C2CN1C(=O)N2OS(=O)(=O)O` (stereo not drawn) [Example 2, Triethylammonium Salt of Methyl trans-4,5,6,8-tetrahydro-6-oxo-1-(phenylethyl)-5-(sulfoxy)-1H-4,7-methanopyrazolo[3,4-e][1,3]diazepine-8-carboxylate]: the IC50 at β-lactamase P99 (setting [1]) was 20 nM; on β-lactamase TEM1 it was 16 nM.

Regarding `COC(=O)[C@@H]1c2nn(Cc3ccccc3)cc2[C@H]2CN1C(=O)N2OS(=O)(=O)O` (relative stereo) [Example 1, triethylammonium salt of methyl trans-2,5,6,8-tetrahydro-6-oxo-2-(phenylmethyl)-5-(sulfoxy)-4H-4,7-methanopyrazolo[3,4-e][1,3]diazepine-8-carboxylate], the IC50 worked out at 5 nM on β-lactamase P99 (setting [1]) and 3 nM at β-lactamase TEM1 (setting [2]).

As for `NC(=O)[C@@H]1c2c(cnn2-c2ccccc2)[C@H]2CN1C(=O)N2OS(=O)(=O)O` (relative stereo) [Example 47, Sodium Salt of trans-4,5,6,8-tetrahydro-6-oxo-1-phenyl-5-(sulfoxy)-1H-4,7-methanopyrazolo[3,4-e][1,3]diazepine-8-carboxamide], the IC50 is 3 nM on β-lactamase P99 (setting [1]) and 12 nM at β-lactamase TEM1 (setting [2]).

For the compound `NC(=O)C1c2nn(C(=O)Nc3ccccc3)cc2C2CN1C(=O)N2OS(=O)(=O)O` (stereo not shown) [Example 7, Triethylammonium Salt of 5,6-dihydro-6-oxo-N-2-phenyl-5-(sulfoxy)-4H-4,7-methanopyrazolo[3,4-e][1,3]diazepine-2,8(8H)-dicarboxamide], the results for the IC50 at β-lactamase P99 (setting [1]) and on β-lactamase TEM1 (setting [2]) were 14 nM and 1 nM, respectively.

In the case of `COc1ccc(Cn2ncc3c2CN2CC3N(OS(=O)(=O)O)C2=O)cc1` (stereo not shown) [Example 18, Sodium Salt of 1,4,5,8-tetrahydro-1-[(4-methoxyphenyl)methyl]-5-(sulfoxy)-6H-4,7-methanopyrazolo[3,4-e][1,3]diazepin-6-one], the IC50 came to 13 nM against β-lactamase P99 (setting [1]) and 5 nM on β-lactamase TEM1 (setting [2]).

As for `Cc1ccccc1-c1cc2c(s1)[C@@H](C(N)=O)N1C[C@H]2N(OS(=O)(=O)O)C1=O` (relative stereo) [Example 24, Sodium Salt of Trans-4,5,6,8-tetrahydro-2-(2-methylphenyl)-6-oxo-5-(sulfoxy)-4,7-methano-7H-thieno[2,3-e][1,3]diazepine-8-carboxamide], the IC50 was determined as 10 nM at β-lactamase P99 (setting [1]) and 2 nM on β-lactamase TEM1 (setting [2]).

For `CC1(C)OCC(COc2ccc3c(c2)C2CN(C(=O)N2OS(=O)(=O)O)C3C(N)=O)O1` (stereo not drawn) [Example 42, Sodium Salt of trans-8-[(2,2-dimethyl-1,3-dioxolan-4-yl)methoxy]-1,2,3,5-tetrahydro-3-oxo-2-(sulfoxy)-1,4-methano-4H-2,4-benzodiazepine-5-carboxamide], the figures for the IC50 at β-lactamase P99 (setting [1]) and at β-lactamase TEM1 were 44 nM and 15 nM, respectively.

For `NC(=O)[C@@H]1c2sc(-c3ccccc3C(F)(F)F)cc2[C@H]2CN1C(=O)N2OS(=O)(=O)O` (relative stereo) [Example 25, Sodium Salt of Trans-4,5,6,8-tetrahydro-6-oxo-5-(sulfoxy)-2-[2-(trifluoromethyl)phenyl]-4,7-methano-7H-thieno[2,3-e][1,3]diazepine-8-carboxamide], the results for the IC50 at β-lactamase P99 (setting [1]) and at β-lactamase TEM1 (setting [2]) were 6 nM and 2 nM, respectively.

In the case of `COC(=O)[C@@H]1c2sc(C(N)=O)cc2[C@H]2CN1C(=O)N2OS(=O)(=O)O` (relative stereo) [Example 21, Sodium Salt of Methyl Trans-2-(aminocarbonyl)-4,5,6,8-tetrahydro-6-oxo-5-(sulfoxy)-4,7-methano-7H-thieno[2,3-e][1,3]diazepine-8-carboxylate], the IC50 against β-lactamase P99 (setting [1]) worked out at 69 nM; on β-lactamase TEM1 (setting [2]) it was 7 nM.

In the case of `COC(=O)C1c2sc(-c3ccc(F)cc3)cc2C2CN1C(=O)N2OS(=O)(=O)O` (stereo not drawn) [Example 19, Sodium Salt of Methyl Trans-2-(4-fluorophenyl)-4,5,6,8-tetrahydro-6-oxo-5-(sulfoxy)-4,7-methano-7H-thieno[2,3-e][1,3]diazepine-8-carboxylate], the values for the IC50 against β-lactamase P99 (setting [1]) and on β-lactamase TEM1 were 16 nM and 5 nM, respectively.

`CCOC(=O)Cn1ncc2c1C(C(=O)OC)N1CC2N(OS(=O)(=O)O)C1=O` (stereo not drawn) [Example 4, Triethylammonium Salt of Ethyl Trans-4,5,6,8-tetrahydro-8-(methoxycarbonyl)-6-oxo-5-(sulfoxy)-1H-4,7-methanopyrazolo[3,4-e][1,3]diazepine-1-acetate]: the IC50 against β-lactamase P99 (setting [1]) amounted to 7 nM; on β-lactamase TEM1, 34 nM.

Regarding `CCOC(=O)[C@@H]1c2c(-c3ccc(F)cc3)csc2[C@H]2CN1C(=O)N2OS(=O)(=O)O` (relative stereo) [Example 44, Sodium Salt of ethyl trans-3-(4-fluorophenyl)-4,6,7,8-tetrahydro-6-oxo-7-(sulfoxy)-5,8-methano-5H-thieno[2,3-e][1,3]diazepine-4-carboxylate], the values for the IC50 against β-lactamase P99 (pH 7) and on β-lactamase TEM1 (setting [2]) were 2 nM and 34 nM, respectively.

Consider `COCCOCOc1ccc2c(c1)[C@@H]1CN(C(=O)N1OS(=O)(=O)O)[C@H]2C(=O)NOC` (relative stereo) [Example 33, Sodium Salt of Trans-1,2,3,5-tetrahydro-N-methoxy-8-[(2-methoxyethoxy)methoxy]-3-oxo-2-(sulfoxy)-1,4-methano-4H-2,4-benzodiazepine-5-carboxamide], for which the IC50 against β-lactamase P99 (setting [1]) came to 17 nM; on β-lactamase TEM1 (setting [2]), 56 nM.

With `COC(=O)C1c2nn(C(N)=O)cc2C2CN1C(=O)N2OS(=O)(=O)O` (stereo not drawn) [Example 11, Pyridinium Salt of Methyl Trans-2-(aminocarbonyl)-2,5,6,8-tetrahydro-6-oxo-5-(sulfoxy)-4H-4,7-methanopyrazolo[3,4-e][1,3]diazepine-8-carboxylate], the IC50 was determined as 39 nM against β-lactamase P99 (setting [1]) and 11 nM against β-lactamase TEM1.

Consider `CCOC(=O)C1c2ccc(OC(=O)Nc3ccccc3)cc2C2CN1C(=O)N2OS(=O)(=O)O` (stereo not drawn) [Example 37, Sodium Salt of Ethyl Trans-1,2,3,5-tetrahydro-3-oxo-8-[[(phenylamino)carbonyl]oxy]-2-(sulfoxy)-1,4-methano-4H-2,4-benzodiazepine-5-carboxylate], for which the figures for the IC50 against β-lactamase P99 (setting [1]) and on β-lactamase TEM1 were 21 nM and 41 nM, respectively.

Take `COC(=O)[C@@H]1c2c(cnn2C(N)=O)[C@@H]2CN1C(=O)N2OS(=O)(=O)O` (relative stereo) [Example 10, Pyridinium Salt of Methyl Trans-1-(aminocarbonyl)-4,5,6,8-tetrahydro-6-oxo-5-(sulfoxy)-1H-4,7-methanopyrazolo[3,4-e][1,3]diazepine-8-carboxylate]: the IC50 was 18 nM against β-lactamase P99 (setting [1]) and 12 nM against β-lactamase TEM1.

Turning to `COC(=O)[C@@H]1c2nn(CC(=O)O)cc2[C@H]2CN1C(=O)N2OS(=O)(=O)O` (relative stereo) [Example 9, Di(triethylammonium) Salt of Trans-5,6-dihydro-8-(methoxycarbonyl)-6-oxo-5-sulfoxy-4H-4,7-methanopyrazolo[3,4-e][1,3]diazepine-2(8H)-acetic acid], the results for the IC50 on β-lactamase P99 (setting [1]) and on β-lactamase TEM1 (setting [2]) were 50 nM and 60 nM, respectively.

Turning to `NC(=O)[C@H]1c2ccc(OCCOS(=O)(=O)O)cc2[C@@H]2CN1C(=O)N2OS(=O)(=O)O` (relative stereo) [Example 41, Disodium Salt of trans-1,2,3,5-tetrahydro-3-oxo-2-(sulfoxy)-8-[2-(sulfoxy)ethoxy]-1,4-methano-4H-2,4-benzodiazepine-5-carboxamide], the IC50 against β-lactamase P99 (setting [1]) came out at 29 nM; at β-lactamase TEM1 (setting [2]) it was 9 nM.
